Here are results for four molecules from article PMC5286520 (Scientific Reports, 2017).

Data set [1] deals with inotocin R (T. castaneum). As to the kind of experiment: IP1 accumulation, CHO cells expressing T. castaneum inotocin receptor. The class given is cell-based, Tribolium castaneum. As to conditions: 10 µM peptide, T. castaneum INTR. The protocol: (§1) Chinese Hamster Ovary cells (CHO) were cultured in Ham’s F12 media supplemented with 10% fetal bovine serum (FBS), 1% PenStrep (all from Sigma-Aldrich, Munich, Germany) and grown in a humidified atmosphere of 37 °C, 5% CO2 and passaged on average twice per week. CHO cells were used for expression of inotocin receptor (L. niger, T. castaneum). Cell transfections were carried out with 10 μg of plasmid using Lipofectamine LTX (Life Technologies, Invitrogen, Carlsbad, USA) for invertebrate receptors. For the expression of human OTR, V1aR, V1bR and V2R, HEK293 cells were transfected using jetPRIME (Polyplus Transfections, Illkirch-Graffenstaden, France)[35]. Cells were maintained in DMEM (GE Healthcare Hy Clone™, Logan, USA) supplemented with 10% FBS and 1% PenStrep.
(§2) Activation of Gq-signalling via the human V1aR, V1bR and OTR, as well as the insect INTR was measured by inositol-1-phosphate (IP1) quantification using an IP1 Tb kit (Cisbio, Codolet, France). Transfected cells were seeded in 96 well-plates, with a cell density of 10^4 cells per well. […] Samples were measured in technical triplicates. […] Activation of Gs-signalling via the human V2R was measured using a luciferase reporter assay. […] For Schild regression analysis, each concentration-ratio (r) was calculated as the agonist EC50 in the presence of a respective concentration of [D-Arg8]-inotocin by the EC50 of the agonist alone.

Data set [2] has as its system inotocin R (L. niger). The data set can be described thus: IP1 accumulation, CHO cells expressing L. niger inotocin receptor. As to conditions: 10 µM peptide, L. niger INTR. The format is cell-based, Lasius niger. The protocol: as §1, §2
For data set [3], the system named is human myometrium. As to the kind of experiment: Ex vivo human myometrial contractility, vasopressin-augmented (0.5 nM). The settings on record: vasopressin 0.5 nM.
Data set [4] deals with T1, human V1bR (Homo sapiens, UniProt P47901).
T1 construct: expressed in transfected cells; host or cells: HEK293 cells, transient (jetPRIME)
T1 sequence (P47901 1-424): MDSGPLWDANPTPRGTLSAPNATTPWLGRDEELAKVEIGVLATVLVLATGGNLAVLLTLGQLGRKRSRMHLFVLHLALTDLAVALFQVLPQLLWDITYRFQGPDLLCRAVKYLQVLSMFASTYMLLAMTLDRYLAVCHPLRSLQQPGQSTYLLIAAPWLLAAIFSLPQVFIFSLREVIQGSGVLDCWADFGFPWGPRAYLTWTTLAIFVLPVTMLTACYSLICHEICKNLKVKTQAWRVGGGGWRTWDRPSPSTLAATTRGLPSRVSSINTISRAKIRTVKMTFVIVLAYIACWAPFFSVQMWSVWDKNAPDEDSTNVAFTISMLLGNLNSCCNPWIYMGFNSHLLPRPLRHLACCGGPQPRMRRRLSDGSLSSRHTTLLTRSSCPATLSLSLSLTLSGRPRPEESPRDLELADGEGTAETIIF
As to the kind of experiment: Radioligand displacement of [3H] vasopressin, human V1bR membranes. The format is binding. In general terms: In a radioligand displacement assay an active substance lowers the binding of a labelled ligand.
Excerpt: Unbound ligands were washed off (Skatron Cell Harvester). […] For the displacement at the human OTR, V1aR, V1bR and V2R the normalization to 100% refers on average to 0.49, 1.4, 0.36, 1.1 pmoles of ligand bound per milligram of membrane for human OTR, V1aR, V1bR and V2R, respectively. […] For the displacement at the insect receptors the normalization to 100% refers on average to 0.65 and 0.69 pmoles of ligand bound per milligram of membrane for inotocin receptor from L. niger and T. castaneum, respectively. Bindings of [^3H] inotocin to membranes (10 μg) expressing INTR from L. niger, or [^3H] inotocin to membranes (10 μg) expressing INTR from T. castaneum, respectively, were assayed for displacement with an excess of inotocin (10^−11 to 10^−5 M) (n ≥ 3, except where otherwise stated). […] Specific binding was calculated by subtracting the non-specific binding from the total binding. IC50 values were obtained by fitting the data to a three-parameter logistic Hill equation. Inhibition constants (Ki) were calculated from IC50 using the method by Cheng and Prusoff[65].

Data set [5] deals with T2, human V2R (Homo sapiens, UniProt P30518).
T2 construct: expressed in transfected cells; host or cells: HEK293 cells, transient (jetPRIME); for the reporter assay co-transfected with pGL4.29 [luc2P/CRE/Hygro]
The data set can be described thus: Radioligand displacement of [3H] vasopressin, human V2R membranes. The class given is binding. The method, then: as §1
Unbound ligands were washed off (Skatron Cell Harvester). […] Bindings of [^3H] AVP and [^3H] […] Bindings of [^3H] inotocin to membranes (10 μg) expressing INTR from L. niger, or [^3H] inotocin to membranes (10 μg) expressing INTR from T. castaneum, respectively, were assayed for displacement with an excess of inotocin (10^−11 to 10^−5 M) (n ≥ 3, except where otherwise stated). […] Specific binding was calculated by subtracting the non-specific binding from the total binding. IC50 values were obtained by fitting the data to a three-parameter logistic Hill equation. Inhibition constants (Ki) were calculated from IC50 using the method by Cheng and Prusoff[65].

Data set [6] deals with T3, human V1aR (Homo sapiens, UniProt P37288). As to the kind of experiment: Radioligand displacement of [3H] vasopressin, human V1aR membranes. Further details: expressed in transfected cells; host or cells: HEK293 cells, transient (jetPRIME). The format is binding. The method, then:
as §1
(§3) Unbound ligands were washed off (Skatron Cell Harvester). […] Bindings of [^3H] AVP and [^3H] […] Bindings of [^3H] inotocin to membranes (10 μg) expressing INTR from L. niger, or [^3H] inotocin to membranes (10 μg) expressing INTR from T. castaneum, respectively, were assayed for displacement with an excess of inotocin (10^−11 to 10^−5 M) (n ≥ 3, except where otherwise stated). […] Specific binding was calculated by subtracting the non-specific binding from the total binding. […] Inhibition constants (Ki) were calculated from IC50 using the method by Cheng and Prusoff[65].

Data set [7] has as its target T2, human V2R. The data set can be described thus: cell-based. As to conditions: luciferase reporter, CRE response element; mean ± SEM; read-out: Potency (EC50). The method, then: as §1
(§4) Activation of Gq-signalling via the human V1aR, V1bR and OTR, as well as the insect INTR was measured by inositol-1-phosphate (IP1) quantification using an IP1 Tb kit (Cisbio, Codolet, France). Transfected cells were seeded in 96 well-plates, with a cell density of 10^4 cells per well. Cell culture media was removed from the wells after 6 h and 70 μL of peptide of interest, prepared in IP1 1X Stimulation Buffer at the desired concentrations, was added. Samples were measured in technical triplicates. After 1 h incubation at 37 °C, 15 μL of IP1-d2 was added, following the same volume of Ab-cryptate. […] Activation of Gs-signalling via the human V2R was measured using a luciferase reporter assay. HEK293 transiently expressing V2R were co-transfected with the pGL4.29 [luc2P/CRE/Hygro] (Promega, Mannheim, Germany) plasmid. […] For cell-based functional assays (luciferase and IP1), subtraction of the negative control (stimulation buffer) was applied to all data set. The normalization was performed to the highest value of the positive control from at least 4 independent experiments. Data were fitted using GraphPad Prism 5.0 with an equation for non-linear regression (sigmoidal, slope fit of 1). Values are reported as mean ± SEM. For Schild regression analysis, each concentration-ratio (r) was calculated as the agonist EC50 in the presence of a respective concentration of [D-Arg8]-inotocin by the EC50 of the agonist alone.

In data set [8] the target is T1, human V1bR. The data set can be described thus: cell-based. The protocol:
as §1, §4

For data set [9], the target named is T3, human V1aR. As to the kind of experiment: cell-based.
Data set [10] deals with T3, human V1aR. As to the kind of experiment: IP1 accumulation, HEK293 cells expressing human V1aR. The format is cell-based. Further details: expressed in transfected cells; host or cells: HEK293 cells, transient (jetPRIME). The method, then:
as §1, §4

Data set [11] deals with T4, human OTR (Homo sapiens, UniProt P30559).
T4 construct: expressed in transfected cells; host or cells: HEK293 cells, transient (jetPRIME)
T4 sequence (P30559 1-389): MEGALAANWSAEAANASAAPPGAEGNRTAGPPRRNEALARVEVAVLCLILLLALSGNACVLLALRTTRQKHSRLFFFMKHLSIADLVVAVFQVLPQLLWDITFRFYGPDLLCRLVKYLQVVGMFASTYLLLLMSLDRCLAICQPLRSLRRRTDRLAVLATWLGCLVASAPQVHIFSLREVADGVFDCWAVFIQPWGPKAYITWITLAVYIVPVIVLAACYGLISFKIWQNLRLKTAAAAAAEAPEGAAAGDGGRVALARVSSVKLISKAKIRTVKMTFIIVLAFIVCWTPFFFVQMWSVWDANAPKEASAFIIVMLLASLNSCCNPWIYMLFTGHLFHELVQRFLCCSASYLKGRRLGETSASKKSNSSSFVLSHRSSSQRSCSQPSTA
The data set can be described thus: IP1 accumulation, HEK293 cells expressing human OTR. The class given is cell-based. The protocol:
as §1, §4

Data set [12] is classed as in vitro ADME, human. The method, then: Serum stability was tested as described previously. Briefly, serum was obtained prepared from human blood (self-donor), allowed to coagulate for 2 h at 23 °C and centrifuged at 12,000 × g for 10 min. Peptides (100 μM) were incubated in serum for 2, 4, 6, 8, 10 and 24 h at 37 °C. To evaluate peptide stability, aliquots ([…]) were analysed via RP-HPLC (UltiMate 3000, Thermo Scientific Dionex, Vienna, Austria) on a C18 column (Phenomenex Kinetex, Aschaffenburg, Germany) with a 3% gradient using 0.1% (v/v) TFA and 90/10/0.1% (v/v/v) acetonitrile/H2O/TFA as eluents. Half-life (t1/2) of peptides was calculated using non-linear regression analysis using Graph Pad Prism.
Supplementary Fig. 5. Human serum stability of the inotocin D-analogue. [D-Arg 8 ]-inotocin […]
serum and their stability monitored via HPLC over a time course of 2, 4, 6, 8, 10 and 24 h. Melittin, a haemolytic peptide from the bee venom was used as a positive control f or peptide degradation.
Area under the curves of samples was determined and correlated to the negative control analyte, which was dissolved in 0.1% TFA; thus they were not subject to degradation and were assumed therefore as 100%. Peptide stability was expressed in percentage of peptide remaining.
(1 picture or pasted object on this page, not shown here)

Data set [13] has as its target T4, human OTR. The data set can be described thus: Radioligand displacement of [3H] oxytocin, human OTR membranes. As to conditions: read-out: Affinity (Ki). The class given is binding. The method, then: as §1, §3
The mark [14] stands for this setting: 100 nM, relative to control activity.
The mark [15] stands for this setting: Affinity (Ki), displacement of [3H] vasopressin, mean ± SEM.
The mark [16] stands for this setting: IP1 accumulation, mean ± SEM, read-out: Potency (EC50).
[17] abbreviates: IP1 response, human V1aR, read-out: EC50.
Setting [18] is: IP1 response, human OTR, read-out: EC50.

Where two headings read alike, the source gives them in different places. Bridge positions count the residues as written; N and C are the ends. Square brackets hold non-standard residues; d marks the D form. Peptide text beside a SMILES is read from it.

T3 sequence (P37288 whole entry): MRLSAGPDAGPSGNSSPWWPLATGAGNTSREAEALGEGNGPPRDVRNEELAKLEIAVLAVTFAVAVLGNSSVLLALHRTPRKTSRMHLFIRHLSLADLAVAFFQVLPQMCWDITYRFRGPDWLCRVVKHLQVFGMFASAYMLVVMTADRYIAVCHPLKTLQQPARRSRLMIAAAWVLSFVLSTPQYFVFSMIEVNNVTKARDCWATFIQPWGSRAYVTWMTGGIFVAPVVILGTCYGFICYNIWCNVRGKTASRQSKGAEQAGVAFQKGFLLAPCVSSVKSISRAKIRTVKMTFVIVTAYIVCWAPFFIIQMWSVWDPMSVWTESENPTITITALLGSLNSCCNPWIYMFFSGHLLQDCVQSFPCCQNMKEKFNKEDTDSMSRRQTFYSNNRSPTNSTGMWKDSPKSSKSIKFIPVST
T2 sequence (P30518 whole entry): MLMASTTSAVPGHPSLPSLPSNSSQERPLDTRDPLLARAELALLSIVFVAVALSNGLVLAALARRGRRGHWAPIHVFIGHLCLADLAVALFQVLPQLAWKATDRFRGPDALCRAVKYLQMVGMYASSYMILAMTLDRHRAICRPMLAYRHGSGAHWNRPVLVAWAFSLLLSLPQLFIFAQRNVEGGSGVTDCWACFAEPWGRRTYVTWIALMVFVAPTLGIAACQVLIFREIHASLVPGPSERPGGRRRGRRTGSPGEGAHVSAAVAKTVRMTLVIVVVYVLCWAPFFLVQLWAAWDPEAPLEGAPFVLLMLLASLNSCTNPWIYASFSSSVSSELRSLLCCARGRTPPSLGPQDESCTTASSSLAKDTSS

As to “1-desamino-8-D-arginine-vasopressin [Desmopressin]”, the “activation (IP1 formation)” value in data set [1] and in data set [2] was “inactive” throughout.
Regarding `COc1ccc(S(=O)(=O)N2c3ccc(Cl)cc3[C@](O)(c3ccccc3Cl)[C@@H]2C(=O)N2CCC[C@H]2C(N)=O)cc1OC` [SR49059, relcovaptan], in [3] (setting [14]), the “reduction of area-under-the-curve (AUC)” value was found to be 72.1% and the “reduction of contraction amplitude” value is listed as 54.8%. In [3] (tested 1-100 nM), the “concentration at which decrease in area-under-the-curve became significant” value came to 30 nM and the “concentration at which decrease in contraction amplitude became significant” value worked out at 30 nM.
For `CC[C@H](C)[C@@H]1NC(=O)[C@H](CC(C)C)NC(=O)[C@@H](N)CSSC[C@@H](C(=O)N2CCC[C@H]2C(=O)N[C@H](CCCNC(=N)N)C(=O)NCC(N)=O)NC(=O)[C@H](CC(N)=O)NC(=O)[C@H]([C@@H](C)O)NC1=O` [[D-Arg8]-inotocin] (H-CLITNCP[dR]G-NH2; disulfide 1-6), the inhibition constant (Ki) in [4] (setting [15]) was above 100 µM; in data set [4] (Ki, no significant displacement, human V1b receptor), above 4 µM; in [5] (setting [15]) it was above 100 µM; in data set [5] (Ki, no significant displacement, human V2 receptor), above 4 µM; in [13], above 4 µM. Besides, in data set [6] (human V1aR over OTR, V1bR and V2R), the binding selectivity is listed as 3,000 fold. In addition, the concentration for a half-maximal effect (EC50) is 0.164 ± 0.026 µM in data set [7]; above 100 µM in data set [8] (setting [16]); above 10 µM in data set [8] (IP1 response, human V1bR, read-out: EC50); above 100 µM in data set [10] (setting [16]); above 10 µM in data set [10] (setting [17]); above 100 µM in data set [11] (setting [16]). For the same molecule, in [11] (setting [18]), the EC50 is above 10 µM. In [9], this molecule showed a Kb of 0.0158 µM. Moreover, in [12] (human serum, 37 °C, 24 h, read-out: peptide still present after 24 h), the remaining at 24 h was above 70%.
As for `CC[C@H](C)[C@@H]1NC(=O)[C@H](CC(C)C)NC(=O)[C@@H](N)CSSC[C@@H](C(=O)N2CCC[C@H]2C(=O)N[C@@H](CCCNC(=N)N)C(=O)NCC(N)=O)NC(=O)[C@H](CC(N)=O)NC(=O)[C@H]([C@@H](C)O)NC1=O` [inotocin] (H-CLITNCPRG-NH2; disulfide 1-6), the Ki in data set [4] (setting [15]) was 0.012 ± 0.0065 µM; in data set [5] (setting [15]) it was above 100 µM; in data set [6] (read-out: Affinity (Ki)) it was 0.011 ± 0.0044 µM; in data set [13], 0.062 ± 0.037 µM. The EC50 was above 1.5 µM in data set [7]; 0.056 ± 0.0097 µM in data set [8] (setting [16]); above 100 µM in data set [10] (setting [16]); above 10 µM in data set [10] (setting [17]); above 100 µM in data set [11] (setting [16]); above 10 µM in data set [11] (setting [18]). Besides, in data set [12] (human serum, 37 °C, 100 μM peptide, read-out: half-life t½ (converted)), the half-life was 2.8 h. In addition, the “degradation in human serum” value in data set [12] (within 24 h) was “fully degraded”.

One may read the Ki as a dissociation constant, usually derived from enzyme kinetics or from competition with a known ligand. As usually defined, the EC50 is the concentration that produces a half-maximal response. The half-life is the time in which the quantity being followed falls by half.
